From patent US20070054899A1 (priority 2003, published 2007)
Where two headings read alike, the source gives them in different places. Each block holds one compound with its values, some of them ahead of it.

Tests used:
[1] = biological target: T1, aromatase (microsomes from the human placenta) (Homo sapiens, UniProt P11511); test: Aromatase inhibition in vitro, tritiated water method, human placenta microsomes; assay type: biochemical
T1 construct: using microsomes from the human placenta as source of the enzyme; from tissue; host or cells: human placenta microsomes
T1 sequence (P11511 1-503): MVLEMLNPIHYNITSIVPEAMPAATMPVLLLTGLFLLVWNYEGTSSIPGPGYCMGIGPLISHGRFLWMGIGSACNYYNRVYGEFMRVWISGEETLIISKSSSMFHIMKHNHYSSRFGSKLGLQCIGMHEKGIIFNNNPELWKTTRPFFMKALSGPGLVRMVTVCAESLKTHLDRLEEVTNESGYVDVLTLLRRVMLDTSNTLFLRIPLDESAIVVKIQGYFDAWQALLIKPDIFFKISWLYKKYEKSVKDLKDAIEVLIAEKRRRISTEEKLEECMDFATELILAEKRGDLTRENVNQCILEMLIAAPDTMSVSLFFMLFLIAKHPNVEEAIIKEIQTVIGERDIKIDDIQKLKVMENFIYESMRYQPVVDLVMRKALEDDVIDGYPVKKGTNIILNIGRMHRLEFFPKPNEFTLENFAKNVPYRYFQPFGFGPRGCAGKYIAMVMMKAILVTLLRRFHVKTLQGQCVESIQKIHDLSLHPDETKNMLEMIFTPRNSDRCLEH

[2] = system: uterine hypertrophy induced by androstenedione; test: Activity in vivo: inhibition of uterine hypertrophy induced by androstenedione; design: species or system rat (Sprague-Dawley); settings: Rattus norvegicus, 96 h, immature female rats, androstenedione 30 mg/kg for 4 days, read-out: % inhibition to doses (μg/Kg); for inhibition in vivo at 0.001 mg/kg: dose 1 μg/Kg; for inhibition in vivo at 0.01 mg/kg: dose 10 μg/Kg; for inhibition in vivo at 0.1 mg/kg: dose 100 μg/Kg; for inhibition in vivo at 1 mg/kg: dose 1000 μg/Kg
Experimental: The activity in vivo of aromatase inhibition by compounds of formula (I) according to the invention has been tested according to the model established by Bharnagar et al. (1990).
In general, immature female rats of the Sprague-Dawley line of a weight ranging from 40 to 50 g have been treated with a dose of androstenedione at 30 mg/kg for 4 days, in the absence or in the presence of doses of various compounds of formula (I).
Four hours after administration of an aromatase inhibitor, the rats were sacrificed. Their uteruses were removed, cleared of adhering fat and conjunctive tissue, next the uteruses were weighed (wet weight). The dry weight of the uteruses was determined the following day after a step of drying for one night at 80° C.

aromatase (e) = aromatase (e) (UniProt O46512); assay type: biochemical; settings: value marked (e); read-out: Activity In vitro IC50(nM), (e)
[3] = value without (h)/(e) mark, read-out: Activity In vitro IC50
[4] = value marked (h), read-out: Activity In vitro IC50(nM), (h)

Sequence of aromatase (e) (O46512 whole entry): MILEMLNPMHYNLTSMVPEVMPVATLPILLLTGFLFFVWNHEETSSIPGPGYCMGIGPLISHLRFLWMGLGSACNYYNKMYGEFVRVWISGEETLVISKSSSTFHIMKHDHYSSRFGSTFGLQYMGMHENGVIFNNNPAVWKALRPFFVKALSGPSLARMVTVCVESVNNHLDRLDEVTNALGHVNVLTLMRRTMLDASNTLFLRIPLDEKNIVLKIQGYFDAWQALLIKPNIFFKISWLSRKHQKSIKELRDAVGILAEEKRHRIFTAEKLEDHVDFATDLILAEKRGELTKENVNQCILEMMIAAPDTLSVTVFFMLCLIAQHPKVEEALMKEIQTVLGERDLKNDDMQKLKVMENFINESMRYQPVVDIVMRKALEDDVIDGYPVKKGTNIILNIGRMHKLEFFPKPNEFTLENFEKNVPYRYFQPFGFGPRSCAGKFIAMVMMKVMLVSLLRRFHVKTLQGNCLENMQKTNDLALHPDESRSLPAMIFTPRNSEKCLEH

IC50 [1, 3]: 5.51 nM | melting point: 125 to 127 °C
Compound: CCn1c(=O)sc2ccc(C(c3ccc(C#N)cc3)n3cncn3)cc21 (centres unmarked) [PCH246, 4-[(3-Ethyl-2-oxo-2,3-dihydro-1,3-benzothiazol-5-yl)(1H-1,2,4-triazol-1-yl)methyl]benzonitrile]
inhibition in vivo at 0.001 mg/kg [2]: 22% | inhibition in vivo at 0.01 mg/kg [2]: 45% | inhibition in vivo at 0.1 mg/kg [2]: 91%

Compound: CCn1c(=O)[se]c2cc(C(c3ccc(C#N)cc3)n3cncn3)ccc21 (centres unmarked) [PC11303, 4-[(3-Ethyl-2-oxo-2,3-dihydro-1,3-benzoselenazol-6-yl)(1H-1,2,4-triazol-1-yl)methyl]benzonitrile]
IC50 [1, 3]: 3.99 nM | inhibition in vivo at 0.001 mg/kg [2]: 38% | inhibition in vivo at 0.01 mg/kg [2]: 60% | inhibition in vivo at 0.1 mg/kg [2]: 71% | melting point: 95 to 98 °C

Compound: Cn1c(=O)oc2cc(C(c3cccc(C#N)c3)n3ccnc3)ccc21 (centres unmarked) [PC122]
IC50 [1, 4]: 18.6 nM | IC50 (aromatase (e)): 23.2 nM | inhibition in vivo at 0.01 mg/kg [2]: 39% | inhibition in vivo at 0.1 mg/kg [2]: 58% | inhibition in vivo at 1 mg/kg [2]: 92%

Compound: N#Cc1ccc(C(c2ccc3[nH]c(=O)[se]c3c2)n2cncn2)cc1 (centres unmarked) [PCH302, 4-[(2-oxo-2,3-dihydro-1,3-benzoselenazol-6-yl)(1H-1,2,4-triazol-1-yl)methyl]benzonitrile]
IC50 [1, 3]: 6.53 nM | inhibition in vivo at 0.001 mg/kg [2]: 45% | inhibition in vivo at 0.01 mg/kg [2]: 20% | inhibition in vivo at 0.1 mg/kg [2]: 63% | melting point: 223 to 226 °C

IC50 [1, 3]: 3.64 nM | melting point: 190 to 195 °C
Compound: Cn1c(=O)[se]c2cc(C(c3ccc([N+](=O)[O-])cc3)n3cncn3)ccc21 (centres unmarked) [PCH304, 3-Methyl-6-[(4-nitrophenyl)(1H-1,2,4-triazol-1-yl)methyl]-1,3-benzoselenazol-2(3H)-one]

Compound: Cn1c(=O)[se]c2cc(C(c3ccc(C#N)cc3)n3cncn3)ccc21 (centres unmarked) [PCH300, 4-[(3-Methyl-2-oxo-2,3-dihydro-1,3-benzoselenazol-6-yl)(1H-1,2,4-triazol-1-yl)methyl]benzonitrile]
IC50 [1, 3]: 4.64 nM | inhibition in vivo at 0.001 mg/kg [2]: 49% | inhibition in vivo at 0.01 mg/kg [2]: 86% | inhibition in vivo at 0.1 mg/kg [2]: 91% | melting point: 154 to 158 °C

Compound: N#Cc1ccc(C(c2ccc3[nH]c(=O)oc3c2)n2ccnc2)cc1 (centres unmarked) [PCH113, 6-[(4-Cyanophenyl)(1H-imidazol-1-yl)methyl]-1,3-benzoxazol-2(3H)-one]
IC50 [1, 4]: 13.2 nM | IC50 (aromatase (e)): 14.6 nM | inhibition in vivo at 0.01 mg/kg [2]: 19% | inhibition in vivo at 0.1 mg/kg [2]: 50% | inhibition in vivo at 1 mg/kg [2]: 94%

IC50 [1, 3]: 5.78 nM | melting point: 122 to 125 °C
Compound: Cn1c(=O)sc2ccc(C(c3ccc(C#N)cc3)n3cncn3)cc21 (centres unmarked) [PCH163, 4-[(3-Methyl-2-oxo-2,3-dihydro-1,3-benzothiazol-5-yl)(1H-1,2,4-triazol-1-yl)methyl]benzonitrile]
inhibition in vivo at 0.001 mg/kg [2]: 57% | inhibition in vivo at 0.01 mg/kg [2]: 83% | inhibition in vivo at 0.1 mg/kg [2]: 95%

IC50 [1, 3]: 3.7 nM | melting point: 79 to 82 °C
Compound: CCn1c(=O)[se]c2cc(C(c3ccc([N+](=O)[O-])cc3)n3cncn3)ccc21 (centres unmarked) [PCH305, 3-Ethyl-6-[(4-nitrophenyl)(1H-1,2,4-triazol-1-yl)methyl]-1,3-benzoselenazol-2(3H)-one]

Compound: O=c1[nH]c2cc(C(c3ccccc3)n3ccnc3)ccc2o1 (centres unmarked) [PCH124, 5-[1H-Imidazol-1-yl(phenyl)methyl]-1,3-benzoxazol-2(3H)-one]
IC50 [1, 4]: 14.9 nM | IC50 (aromatase (e)): 14.1 nM | inhibition in vivo at 0.01 mg/kg [2]: 34% | inhibition in vivo at 0.1 mg/kg [2]: 71% | inhibition in vivo at 1 mg/kg [2]: 92%
